Residues, ends and D or L forms follow the SMILES beside them. *: point of attachment. Cbz = O=C(OCc1ccccc1)*
How the values were obtained:
[1] = molecular target: T1, dopamine transporter (Canis lupus familiaris, UniProt A0A8I3S5A0); conditions: cited from earlier work
T1 construct: digitonin-solubilized dopamine transporters from dog caudate nucleus; from tissue; host or cells: dog caudate nucleus, digitonin-solubilized extract

[2] = system: CAD cells; experiment: Ponceau-S staining of the total membrane (other cellular proteins); conditions: desipramine treatment for 3 days
[3] = molecular target: T2, NET (Homo sapiens, UniProt P23975); experiment: Ubiquitination of NET: IP with anti-HA (Ub), immunoblot with anti-NET, in transfected CAD cells; assay type: cell-based; conditions: CAD cells transfected with NET and HA-Ub; 1 mM, pre-incubated 30 min at 37° C. before IP; vs vehicle
T2 construct: expressed in transfected cells; host or cells: CAD cells (transient, co-transfected with HA-Ub)
Description: Prior to IP, cells were pre-incubated in media containing either vehicle (control), 1 mM PMA, or 1 mM methacholine (meth) for 30 min. PMA and methacholine increased ubiquitination of NET.
(§1) Acute regulation of NET ubiquitination by PMA and methacholine (meth) was assessed. […] One mM PMA and 1 mM meth both increased ubiquitination of NET (FIG. 3). Chronic regulation of ubiquitination of NET was assessed in CAD cells transfected with NET and HA-Ub. […] FIGS. 5A-5B.

[4] = system: hNET; experiment: NE transport assay in CAD-his-hNET cells; assay type: cell-based, human; design: dose or concentration left out as unconfirmed; conditions: incubated 0, 1, 4 and 24 hrs prior to NE transport assay; triplicates
Description: FIG. 5A—Inhibition of proteasomes influence NET transport in cells. CAD-his-hNET cells in 24 well plates were incubated in MG132 ([…]) for 0, 1, 4 and 24 hrs prior to NE transport assay in triplicates.
Transport Assay. CAD-his-hNET cells in 24 well plates were incubated in MG132 ([…]) for 0, 1, 4 and 24 hrs prior to NE transport assay in triplicates. Protein Assay. CAD cells transfected with NET and Ub were preincubated with MG132 for 4 hrs prior to cell lysis and immunoblot with anti-NET for protein analysis.

[5] = molecular target: T2, NET; experiment: NET proteins (total) by immunoblot with anti-NET in transfected CAD cells; assay type: cell-based; design: dose or concentration left out as unconfirmed; conditions: CAD cells transfected with NET and Ub; preincubated 4 hrs prior to lysis
Description: as §1

[6] = digitonin-solubilized extract of dog caudate

T2 sequence (P23975 whole entry): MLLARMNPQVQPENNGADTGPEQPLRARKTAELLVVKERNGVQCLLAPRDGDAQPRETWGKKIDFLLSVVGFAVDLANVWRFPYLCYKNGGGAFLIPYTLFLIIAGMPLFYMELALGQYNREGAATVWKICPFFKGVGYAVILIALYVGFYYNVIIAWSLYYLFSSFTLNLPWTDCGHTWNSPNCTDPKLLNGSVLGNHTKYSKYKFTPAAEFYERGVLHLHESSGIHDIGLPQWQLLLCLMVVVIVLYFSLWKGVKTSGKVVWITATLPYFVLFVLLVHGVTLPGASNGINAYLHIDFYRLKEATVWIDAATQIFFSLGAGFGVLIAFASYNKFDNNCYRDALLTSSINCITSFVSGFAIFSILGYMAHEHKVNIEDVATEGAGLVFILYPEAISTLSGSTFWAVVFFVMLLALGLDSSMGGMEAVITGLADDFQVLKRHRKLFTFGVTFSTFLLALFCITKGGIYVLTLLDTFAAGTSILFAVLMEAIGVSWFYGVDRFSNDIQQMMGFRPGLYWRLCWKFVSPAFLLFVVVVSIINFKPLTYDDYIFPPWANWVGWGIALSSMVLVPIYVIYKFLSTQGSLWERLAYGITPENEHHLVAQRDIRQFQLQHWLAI
T1 sequence (A0A8I3S5A0 1-617): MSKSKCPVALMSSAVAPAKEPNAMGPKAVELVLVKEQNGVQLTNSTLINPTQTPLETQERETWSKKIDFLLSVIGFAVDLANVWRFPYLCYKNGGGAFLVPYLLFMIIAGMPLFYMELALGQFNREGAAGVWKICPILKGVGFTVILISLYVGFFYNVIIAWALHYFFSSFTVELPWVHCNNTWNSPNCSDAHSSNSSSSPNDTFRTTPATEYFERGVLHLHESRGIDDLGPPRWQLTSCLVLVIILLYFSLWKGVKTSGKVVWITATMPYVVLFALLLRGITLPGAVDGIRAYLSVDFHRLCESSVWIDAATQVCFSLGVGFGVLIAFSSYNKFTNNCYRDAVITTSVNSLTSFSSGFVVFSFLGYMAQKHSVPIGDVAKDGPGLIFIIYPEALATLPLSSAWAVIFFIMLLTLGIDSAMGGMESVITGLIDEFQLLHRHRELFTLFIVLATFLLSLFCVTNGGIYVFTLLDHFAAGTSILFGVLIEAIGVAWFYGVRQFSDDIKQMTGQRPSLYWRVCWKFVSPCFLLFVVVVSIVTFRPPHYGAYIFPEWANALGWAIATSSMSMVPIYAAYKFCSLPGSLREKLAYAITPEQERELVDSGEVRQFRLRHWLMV

CNCCCN1c2ccccc2CCc2ccccc21 [Desipramine, desipramine]
inhibition of soluble [3H]WIN 35,428 binding (competition studies) [1, 6]: weakly
amounts of other cellular proteins (Ponceau-S stain of total membrane) [2]: no change

COC(=O)[C@H]1[C@@H](c2ccc(F)cc2)C[C@@H]2CC[C@H]1N2C [[^3H]WIN 35,428]
Kd ([1]; digitonin-solubilized extract of dog caudate, read-out: Kd of binding): 16 nM

CC(=O)OC(C)C[N+](C)(C)C (stereo not shown) [meth, methacholine]
ubiquitination of NET (acute regulation) [3]: increased

CCCCCCCCCCCCCC(=O)O[C@@H]1[C@@H](C)[C@@]2(O)[C@@H](C=C(CO)C[C@]3(O)C(=O)C(C)=C[C@@H]23)[C@@H]2C(C)(C)[C@]12OC(C)=O [PMA]
ubiquitination of NET (acute regulation) [3]: increased

(−)-cocaine
potency compared to assays using [3H]GBR 12935 ([1]; competition against [3H]WIN 35,428): relatively more potent

CC(C)C[C@@H](C=O)NC(=O)[C@H](CC(C)C)NC(=O)[C@H](CC(C)C)NC(=O)OCc1ccccc1 [MG132] (Cbz-Leu-Leu-Leu-aldehyde)
NET transport [4]: increase
NET protein concentration [5]: increase

OC1(c2ccc(Cl)cc2)c2ccccc2C2=NCCN21 (stereo not shown) [mazindol]
inhibition of soluble [3H]WIN 35,428 binding (competition studies) [1, 6]: strongly

COC(=O)C1C(OC(=O)c2ccccc2)CC2CCC1N2C (single isomer, unassigned; (+)) [(+)-cocaine]
inhibition of soluble [3H]WIN 35,428 binding (competition studies) [1, 6]: weakly
